How the values were obtained:
blood-CNS barrier = experiment: Blood-CNS barrier disruption (Evans blue dye) after spinal cord injury; assay type: in vivo, rat; settings: 50 mg/kg injected 15 min before SCI; Evans blue at 6 h after SCI; FIG. 3
Procedure: Disruption of the blood-CNS barrier was assessed according to the method of Uyama et al. [J. Cereb. Blood Flow Metab. 8, 282-284 (1988)] with certain modifications. SCI was induced 15 min after injection of test compound (50 mg/kg). At 6 h after SCI, 4 mL/kg of 2.5% Evans blue dye solution was administered via the femoral vein. One hour later rats were anesthetized by pentobarbital (40 mg/kg) and killed. The T13 spinal cord segment was removed and homogenized in 1 mL of 50% trichloroacetic acid (w/v). After centrifugation the extracted dye was diluted fourfold with ethanol, and its fluorescence was quantified using a spectrophotometer at an excitation wavelength of 620 nm and an emission wavelength of 680 nm.

[1] = test system: rat spinal cord injury model; experiment: Improvement of dyskinesia, open field walking scale after spinal cord injury; assay type: in vivo; settings: 50 mg/kg injected 15 min before SCI; compression injury with 20-g weight; up to 28 days; FIG. 4
Procedure: (§1) SCI was induced 15 min after injection of test compound (50 mg/kg). Dyskinesia was assessed according to an open field walking scale (Behrmann et al., Exp. Neurol. 126, 61-75 (1994)) and an inclined-plane test (Rivlin et al., J. Neurosurg. 47, 577-581 (1977)) using rats subjected to compression injury with a 20-g weight. In the open field walking scale, animals were scored from 0 (no spontaneous movement) to 5 (normal gait) based on 5 min of observation. With the scale, the animal's capability for gross hindlimb movement was evaluated before SCI, every 2 days afterward for 2 weeks beginning on the first day, and later at 21 and 28 days after injury. In the inclined-plane test, a cork mat was fixed to the surface of a movable inclined plane. We recorded the maximal angle of inclined-plane at which the rat could maintain position for […]. This was evaluated before and at 1, 7, 14, 21 and 28 days after injury.

CINC-1 protein = experiment: Suppression of CINC-1 expression on rat spinal cord injury model; assay type: in vivo; settings: Wistar rats; injected via femoral vein 15 min before spinal cord injury; T13 segment; FIG. 1
Procedure: Under anesthesia using pentobarbital (40 mg/kg of body weight), spinal cord injury model was made using Wistar rats weighing 250-300 g according to the operative procedure of Tonai et al. [J. Neurochem. 72, 302-309 (1999)]. At various time intervals after injury, the rats were frozen, and then T13 spinal cord segment was removed for analysis of CINC-1 protein.
The test compound was dissolved in physiologic saline containing 12 mM Na2CO3 and injected via the femoral vein 15 min before spinal cord injury. Saline vehicle alone was administered by the same route in control animals.

myeloperoxidase activity = experiment: Assay of myeloperoxidase (MPO) activity in T13 spinal cord segment after spinal cord injury; assay type: in vivo, rat; settings: administered 15 minutes before spinal cord injury, FIG. 2
Procedure: For assessment of accumulation and infiltration of leukocytes, we measured myeloperoxidase activity according to a modification of the method of Xu et al. (J. neurochem. 55, 907-912 (1990)). The test compound was administrated 15 minutes before spinal cord injury, and then the T13 segments 2, 4, 8, 12 and 24 h after injury were sonicated in 1 mL of 50 mM potassium phosphate buffer (pH 6.0) containing 0.5% […]. The homogenates were centrifuged at 10,000×g for 20 min, and 0.1 mL of the supernatant was added to 0.6 mL of 50 mM potassium phosphate buffer (pH 6.0) containing 0.53 mM o-dianisidine dihydrochrolide and 0.15 mM H2O2. After 5 min, the change in absorbance at 460 nm was monitored with a spectrophotometer (model DU 640, Beckmann, Germany).

[2] = test system: rat spinal cord injury model; experiment: Improvement of dyskinesia, inclined-plane test after spinal cord injury; assay type: in vivo; settings: 50 mg/kg injected 15 min before SCI; compression injury with 20-g weight; up to 28 days; FIG. 5
Procedure: as §1

[3] = test system: spinal cord injury model in rats; settings: reported in Brain Research, 799, 264-269 (1998); cited from earlier work

Row | Molecule | Blood-CNS barrier disruption (blood-CNS barrier) | dyskinesia after spinal cord injury, open field walking scale [1] | CINC-1 protein expression after spinal cord injury (CINC-1 protein) | myeloperoxidase activity (myeloperoxidase activity; 4 hours after injury) | myeloperoxidase activity (myeloperoxidase activity; 12 hours after injury) | myeloperoxidase activity (myeloperoxidase activity; 24 hours after injury) | dyskinesia after spinal cord injury, inclined-plane test [2] | efficacy in spinal cord injury model in rats [3]
1 | CC(C)(C)C(=O)Oc1ccc(S(=O)(=O)Nc2ccccc2C(=O)NCC(=O)[O-])cc1.O.O.O.O.[Na+] [compound (X), N-[o-(p-pivaloyloxybenzenesulfonylamino)benzoyl]glycine monosodium salt tetrahydrate] | suppressed Blood-CNS barrier disruption significantly | suppressed dyskinesia after spinal cord injury significantly | suppressed in dose-dependently | 46 % of control | 61 % of control | 64 % of control | suppressed dyskinesia after spinal cord injury significantly | –
2 | Eglin C | – | – | – | – | – | – | – | effective
3 | CO[C@H]1C(=O)N2C(C(=O)N3CCC[C@H]3C(=O)O)=C(COC(C)=O)CS(=O)(=O)[C@H]12 [L 658,758] | – | – | – | – | – | – | – | effective
